From PubChem BioAssay AID1996 come the findings set out here.

≈ marks a conversion by molar mass, not a printed value.

For the data set the following is noted: buffer; pH 7.4; 200.0 µM.
The term solubility (kinetic) denotes the concentration staying in solution when a stock, usually in DMSO, is diluted into the medium. Consider `CC(=O)NC(=S)Nc1ccc(NC(=O)c2cccnc2)cc1`, for which the kinetic solubility worked out at 10.2 µg/mL (≈ 32.4 µM).
The value for `CC(=NCc1cccnc1)c1c(O)n(-c2ccc(Cl)cc2)c(=O)[nH]c1=O` was 2 µg/mL (≈ 5.39 µM); that for `CCCCC(=O)Nc1cc(OC)c(NC(=S)NC)cc1OC` was above 48.8 µg/mL.
Consider `O=C(/C=C/Nc1ccc(F)cc1F)c1ccc(Br)cc1`, for which the kinetic solubility was below 0.7 µg/mL.
The same measure for `CCOc1ccccc1NC(=O)CN1C(=O)COc2ccccc21`: 3.6 µg/mL (≈ 11 µM).
On to `CC(C)n1cnc2cc(NC(=O)c3ccco3)ccc21`, for which the kinetic solubility was above 40.4 µg/mL.
The value for `N#Cc1c(NCCCO)nc(NCc2ccccc2)c2c1CCN(Cc1ccccc1)C2` was 7.7 µg/mL (≈ 18 µM); that for `CCOc1cc(C(N)=O)cc(Cl)c1OCC` was 34.6 µg/mL (≈ 142 µM); that for `Fc1cccc(F)c1/C=N/N1CCOCC1` was above 33.9 µg/mL.
The same measure for `OC1CCC(Nc2ncnc3sccc23)CC1` (configuration not stated): above 37.4 µg/mL; for `COc1ccc(S(=O)(=O)N2CCCCCC2)cc1NC(=O)Cc1ccc(OC)c(OC)c1`: 22.1 µg/mL (≈ 47.8 µM).
The value for `CC(CN1CCCC1)OC(=O)c1ccc(Cl)cc1.Cl` (configuration not stated) was above 45.6 µg/mL; that for `CN(Cc1cccc(F)c1)C(=O)c1cc(=O)[nH]c2ccccc12` was 44.3 µg/mL (≈ 143 µM).
Turning to `CCc1cc2c(NC(Cc3ccccc3)C(=O)O)ncnc2s1` (configuration not stated), the solubility (kinetic) is above 49.1 µg/mL.
The same measure for `Cl.O=C(NC12CC3CC(CC(C3)C1)C2)OC1CN2CCC1CC2` (configuration not stated): 47.7 µg/mL; for `OCC(O)C1OC(Nc2ccc(Cl)cc2)C(O)C1O` (configuration not stated): above 43.5 µg/mL; for `c1ccc2c(SCc3cn4ccccc4n3)nncc2c1`: above 43.9 µg/mL.
The same measure for `Cc1cc([N+](=O)[O-])nn1CC(=O)NC(C)c1ccccc1` (configuration not stated): above 43.2 µg/mL; for `COc1ccc(OC)c(/C=C/C(=O)OCC(=O)NCc2ccccc2)c1`: 15.1 µg/mL (≈ 42.5 µM).
The value for `O=C(CCCNC(=O)c1ccc(Cl)cc1)Nc1ccccc1F` was 33.5 µg/mL (≈ 100 µM); that for `Cn1ccnc1SCC(=O)NC1CCCC1` was 28.8 µg/mL (≈ 120 µM); that for `CN1CCN(C(=O)c2cc(=O)c3cc(Cl)cc(Cl)c3o2)CC1` was 50.5 µg/mL (≈ 148 µM).
The molecule `O=C(NC(=S)/C(=C1\CCCCCN1)[N+](=O)[O-])c1ccccc1` returned a solubility (kinetic) of 44.9 µg/mL (≈ 141 µM).
On to `Cc1ccc(NC(=O)CCSc2ccccc2)c(C)c1`, for which the kinetic solubility was below 0.6 µg/mL.
`O=C(Nc1cccc(S(=O)(=O)N2CCCCC2)c1)c1cncc(Br)c1` returned a kinetic solubility of 31.6 µg/mL (≈ 74.5 µM).
`Cc1cc(NC(=O)Nc2ccccc2Cl)no1` returned a kinetic solubility of 36.2 µg/mL (≈ 144 µM). The solubility kinetic values of the last two molecules are within 1.5-fold of each other.
In the case of `Cc1c(N=Cc2c(O)n(C)c(=O)[nH]c2=O)c(=O)n(-c2ccccc2)n1C`, the solubility (kinetic) was above 53.3 µg/mL.
The same measure for `COc1ccc(COC(=O)CNC(=O)C2CCCCC2)cc1F`: 18.4 µg/mL (≈ 56.9 µM); for `O=C(COC(=O)[C@H](Cc1ccccc1)NC(=O)c1ccco1)Nc1ccccc1OC(F)F`: 64 µg/mL (≈ 140 µM); for `O=C(COC(=O)Cc1ccc(Br)cc1)NCC1CCCO1` (configuration not stated): above 53.4 µg/mL.
The same measure for `CCOc1ccc(NC(=O)CN2C(=O)CSC2=O)cc1`: above 44.1 µg/mL.
The same measure for `Nc1cc(S(=O)(=O)N2CCCCC2)ccc1Oc1ccccc1`: 10.8 µg/mL (≈ 32.5 µM); for `O=C(Nc1ccc(F)cc1F)c1ccc(S(=O)(=O)NCc2ccco2)cc1`: 10.5 µg/mL (≈ 26.8 µM).
For the molecule `O=C(CSc1ccccc1F)NCC(c1cccs1)N1CCOCC1` (configuration not stated), the solubility (kinetic) was above 57.1 µg/mL.
The molecule `CN(C)CCOC(=O)CCCCCCCCC(=O)OCCN(C)C.Cl` gave a solubility (kinetic) above 62.6 µg/mL.
The same measure for `c1ccc(CCNc2nc(-c3ccncc3)nc3ccccc23)cc1`: 0.3 µg/mL (≈ 0.919 µM); for `O=c1ccc(C(F)(F)F)cn1Cc1cc(=O)n2ccsc2n1`: 44.2 µg/mL (≈ 135 µM); for `c1ccc(-c2nc(NC3CCCC3)c3ccccc3n2)cc1`: 3.1 µg/mL (≈ 10.7 µM).
The same measure for `O=C(O)CCCc1ccc(N(CCCl)CCCl)cc1`: above 45.6 µg/mL.
The same measure for `CCCCc1nnc(NC(=O)COC)s1`: above 34.4 µg/mL; for `Fc1ccc(NC(=S)NCc2cccnc2)cc1`: above 39.2 µg/mL.
Regarding `CC(=O)Nc1ccc2sc(NC(=O)CN3CCOCC3)nc2c1`, the solubility (kinetic) was above 50.2 µg/mL.
Regarding `COc1cc(OC)cc(C(=O)OCC(=O)N2CCCC2)c1`, the solubility (kinetic) was above 44 µg/mL.
The value for `Cc1cccc(NCc2ccc(N(C)C)cc2)n1` was 27.8 µg/mL (≈ 115 µM); that for `CCOC(=O)N1CCN(C(=O)c2ccc3ccccc3c2)CC1` was above 46.9 µg/mL.
The same measure for `COc1ccc(C(=O)OCC(=O)c2ccc3[nH]c(=O)[nH]c3c2)c(OC)c1OC`: 20.3 µg/mL (≈ 52.5 µM); for `CNC(=O)COC(=O)CCC(=O)c1cccs1`: 31.6 µg/mL (≈ 124 µM).
The value for `N#C/C(=C\c1ccc(Cl)c([N+](=O)[O-])c1)c1ccccn1` was 2.5 µg/mL (≈ 8.75 µM); that for `COc1ccc(NC(=O)c2ccc(S(=O)(=O)N3CC(C)OC(C)C3)cc2)cc1` (configuration not stated) was 7.8 µg/mL (≈ 19.3 µM).
Molecule `Cc1nnc(SCC(=O)NC(C)(C)C)n1NCc1cccc(Br)c1` returned a kinetic solubility above 61.9 µg/mL.
The same measure for `COc1cccc(-c2cc(-c3cccnc3)nc(N)c2C#N)c1`: 2.3 µg/mL (≈ 7.61 µM); for `O=C(COc1cccc(C(F)(F)F)c1)NCC(c1ccco1)N1CCCC1` (configuration not stated): 45.1 µg/mL (≈ 118 µM).
